Laboratory results reported in patent US12157740B2, “Triazolopyridines and triazolopyrimidines that lower stress-induced p-tau” (NantNeuro, LLC, priority 2015, dated 2024).
Each block holds one compound with its values, some of them ahead of it.

Key:
[1] = in vivo pharmacokinetics, plasma and brain levels; set-up: species or system mouse; details: for brain levels after subcutaneous injection: peak for J14 and J19; for time of peak levels after SQ injection: plasma and brain (J19: brain); for levels after oral delivery compared with injection: J32: plasma and brain
[2] = test system: tau and phospho-tau in SHSY-5Y cells; assay: CRF-induced tau, p-tau and sAPPα changes in SHSY-5Y cells; assay type: cell-based; details: for p-tau/tau ratio: FIG. 32C
[3] = test system: tau and p-tau in SH-Sy5Y cells; assay: screens for tau and p-tau levels in SH-Sy5Y cells (no CRF stated); assay type: cell-based; details: for tau and/or p-tau lowering effect compared with J03: SH-Sy5Y screens (J04: p-tau only, FIG. 19; J17: FIGS. 21A-B; J14: FIG. 28A)
Protocol: As described below, in vitro studies were performed using SHSY-5Y cells. These cells are a useful neurological model that differentiate into cells with morphological and biochemical characteristics of mature neurons including mature isoforms of tau. […]

mice = assay: J14 daily SQ injection for 12 days in mice; assay type: in vivo, mouse
Protocol: (§1) Animal experiments were performed using J20 mice. The J20 mouse is a model of for Alzheimer's disease. This model overexpresses human APP with two mutations linked to familial Alzheimer's disease (the APP KM670/671NL (Swedish) and 5APP V717F (Indiana) mutations).
FIGS. 31A-31F depict total sAPPα, Aβ1-40, and Aβ1-42, and tau, p-tau, and p-tau/tau ratio, respectively, after daily SQ injection at 10 mkd does for 12 days.

tau and p-tau = assay: effect of J03 and J19 on tau and p-tau (FIG. 39E-39F, system not given)
Text: JI9 decreased tau and both J03 and JI9 decreased p-tau (FIG. 39E). Therefore, while the p-tau/tau ratio looks unchanged for J19 FIG. 39F. This is due to the tau decrease and not due to a lack of effect.

J20 mice = assay: J17 pilot study in J20 mice (oral, 28 days); assay type: in vivo, mouse
Protocol: as §1
In a J17 pilot study (#1 pilot study) male and female J20 mice were housed singly and treated with J17 at 10 rnkd by oral delivery for 28 days.

[4] = CRF-1 at 0 nM, 50 nM and 100 nM, FIGS. 29B-29C
[5] = CRF-1 at 100 nM for 3 days, compound at 20 nM, FIG. 29A
[6] = compared to a control J03, FIGS. 33A-33B
[7] = 10 mg/kg intraperitoneal, FIG. 33D
[8] = primary screen in SH-Sy5Y cells, FIG. 19

SMILES: CCC(COC)n1nnc2c(N(C)c3c(C)cc(C)cc3C)nc(C)nc21 (centres unmarked) [J14]
brain/plasma ratio after SQ injection ([1]; 10 mg/kg SQ): 0.6
plasma level at peak after subcutaneous injection ([1]; 10 mg/kg SQ, FIG. 30A): 798 ng/mL
brain levels after subcutaneous injection ([1]; 10 mg/kg SQ): 485 ng/g
time of peak levels after SQ injection ([1]; 10 mg/kg SQ): 2 h
time of peak brain levels after oral feeding ([1]; 10 mg/kg oral, FIG. 30B): 2 h
brain levels after oral delivery ([1]; 10 mg/kg oral, peak for J14): 13.3 ng/g
brain:plasma ratio after oral delivery ([1]; oral feeding at 10 mg/kg): 1.33
p-tau [2, 4]: decreasing
p-tau and tau decrease compared with J03 [2, 4]: more than J03
tau [2, 4]: decreasing
p-tau [2, 5]: decreased
total tau [2, 5]: decreased
tau and/or p-tau lowering effect compared with J03 [3]: more than J03
p-tau ([3]; screen of FIG. 28A): decreased
total tau ([3]; screen of FIG. 28A): decreased
p-tau ([3]; screen of FIG. 28B): neither J14 nor J03 decreased
total tau ([3]; screen of FIG. 28B): neither J14 nor J03 decreased
tau protein (mice; B254 mice (Swedish, Indiana and D664A APP mutations), trend for both vehicle and J14 treated, FIGS. 31D-31F): trend for lower levels
Aβ1-40 (mice; daily SQ injection 10 mkd for 12 days, FIG. 31B): trend toward decrease
Aβ1-42 (mice; daily SQ injection 10 mkd for 12 days, FIG. 31C): trend toward decrease
sAPPα (mice; daily SQ injection 10 mkd for 12 days, compared to vehicle treated mice, FIG. 31A): decrease

SMILES: CCC(COC)n1nnc2c(N(C)c3ccc(OC)cc3C)nc(C)nc21 (centres unmarked) [J30]
total tau levels [3, 6]: lowered

SMILES: CCC(COC)n1nnc2c(Nc3ccc(OC)cc3C)nc(C)nc21 (centres unmarked) [J04]
clearance after injection compared with oral delivery ([1]; SQ injection, FIG. 20A): slower
brain levels after SQ injection ([1]; dose not given, FIG. 20A): ~55 ng/g
brain levels after oral delivery ([1]; dose not given, FIG. 20A): ~55 ng/g
tau and/or p-tau lowering effect compared with J03 [3]: same level as J03
p-tau [3, 8]: did lower
tau [3, 8]: did not lower

Now from value to compound, other results behind:

brain levels after subcutaneous injection ([1]; 10 mg/kg SQ): ~190 ng/g
time of peak levels after SQ injection ([1]; 10 mg/kg SQ): 4 h
levels after oral delivery compared with injection ([1]; 10 mg/kg oral): much lower
persistence of brain levels after SQ injection ([1]; 10 mkd SQ, FIG. 32G): relatively high until 8 hours
SMILES: CCC(COC)Nc1nc(C)nc2c1nnn2-c1ccc(Cl)cc1C (centres unmarked) [J19, 3-(4-Chloro-2-methylphenyl)-N-(1-methoxybutan-2-yl)-5-methyl-3H-[1,2,3]triazolo[4,5-d]pyrimidin-7-amine]
p-tau (tau and p-tau; FIG. 39E): decreased
tau (tau and p-tau; FIG. 39E): decreased
p-tau/tau ratio (tau and p-tau; FIG. 39F as printed, due to the tau decrease): unchanged
p-tau/tau ratio ([2]; at 50 and 100 nM CRF): highly significantly decreased
tau ([2]; in the absence of CRF and in the presence of 100 nM CRF, FIG. 32A): trend to decrease
p-tau/tau ratio ([2]; in the absence of CRF): decreased
p-tau ([2]; in the presence and absence of CRF, FIG. 32B): significantly reduced
sAPPα ([2]; with and without CRF, FIG. 32D): trend for sAPPα to be higher

plasma levels after subcutaneous injection ([1]; 10 mg/kg SQ, FIG. 23A): ~4000 ng/m
brain levels after subcutaneous injection ([1]; 10 mg/kg SQ): ~400 ng/g
plasma levels relative to brain levels after oral delivery ([1]; 10 mg/kg oral, FIG. 23B): ~10 fold
brain levels after oral delivery ([1]; 10 mg/kg oral, peak for J14): ~50 ng/g
SMILES: CCC(COC)Nc1nc(C)nc2c1nnn2-c1ccc(OC)cc1C (centres unmarked) [J17]
Aβ1-40/Aβ1-42 ratio (J20 mice; FIG. 26C): no significant difference
Aβ1-42 (J20 mice; data from all mice, FIG. 26A): no significant differences
activity (J20 mice; male and female J20 mice housed singly, oral 28 days, not significant, FIG. 24A): lowered
p-tau (J20 mice; male mice, FIG. 27B): slightly lower
p-tau/tau ratio (J20 mice; male mice, FIG. 27C): lower still
Aβ1-42 (J20 mice; male mice, low outlier from one sibling pair eliminated, FIG. 26B): significant reduction
Tau (J20 mice; males, FIG. 27A): increased
sAPPβ (J20 mice; oral 28 days, FIG. 25B): decrease
novel object preference, overall (J20 mice; oral 28 days, all mice, FIG. 24B): increase with J17 was significant
sAPPα (J20 mice; oral 28 days, both genders, FIG. 25A): increase with J03 but not J17
ratio sAPPα/sAPPβ (J20 mice; oral 28 days, males, FIG. 25C): greater
tau after exposure to CRF ([2]; FIG. 21D): decreased
p-tau after exposure to CRF ([2]; FIG. 21E): decreased
p-tau with increasing concentrations of CRF ([2]; seen at all concentrations of CRF tested, excluding 0, FIG. 22C): decrease
sAPPα with increasing concentrations of CRF ([2]; seen without CRF and at 50 nM, not at other concentrations, FIG. 22A): decrease
tau with increasing concentrations of CRF ([2]; seen without CRF and at 50 and 100 nM, FIG. 22B): decrease
sAPPα after exposure to CRF ([2]; versus control, FIG. 21C): the same for control as for J17
tau ([3]; SH-Sy5Y cells, FIG. 21A): significantly lower
p-tau ([3]; SH-Sy5Y cells, FIG. 21B): significantly lower
tau and/or p-tau lowering effect compared with J03 [3]: greater

brain/plasma ratio after SQ injection ([1]; 10 mg/kg SQ): 0.75
time of peak levels after SQ injection ([1]; 10 mg/kg SQ): 1 h
clearance from brain after IP injection [1, 7]: cleared out slowly over 8 hours
time of peak brain levels after IP injection [1, 7]: 2 h
levels after oral delivery compared with injection ([1]; 10 mg/kg oral): much lower
SMILES: CCC(COC)N(C)c1nc(C)nc2c1nnn2-c1c(C)cc(C)cc1C (centres unmarked) [J32]
p-tau/tau ratio ([3]; 1p M of J32 in SH-SY5Y cells, compared to J03 and a control, FIG. 33C): significant decrease
p-tau/tau ratio [3, 6]: significantly lowered
